# Test results: patent publication US20230346718A1, “METHOD OF TREATING, AMELIORATING AND/OR […]” (YALE UNIVERSITY, priority 2022, published 2023)
# “Also recorded” adds a separate entry of the source.
# Legend:
# [1] = molecular target: serotonin 5-HT2A receptors (Homo sapiens, UniProt P28223); conditions: literature; cited from earlier work
# [2] = test system: healthy controls (HC) and MDD participants; experiment: In session VAS anxiety and depression; format: in vivo, human; conditions: for Peak change in VAS depression: MDD participants only; for Peak change in VAS depression / Peak change in VAS anxiety scale: mean (SD); for Peak change in VAS anxiety scale: all participants
# Protocol: (§1) Both the VAS Psychedelic effects, and PSI were measured before dose administration, shortly after resolution of effects, and again near time of discharge. Subjects were instructed to retroactively rate the effects during the peak effects, given that they might not be able to accurately assess and report effects while immersed in the peak effects. […] In addition to day-after dosing follow up, subjects were contacted 1, 2, and 12 weeks after completion of the last dosing session to follow up on safety and wellbeing.
# [3] = test system: healthy controls (HC) and MDD participants; experiment: Adverse events of the dosing sessions; format: in vivo, human
# Source text: Given the intensity and brevity of DMT effects, participants were allowed a mostly uninterrupted experience with psychiatrists utilizing a non-directive and supportive approach. Participants were asked how they were feeling at the same time points as the physiological recordings; no psychotherapy was provided. Rescue medications for psychological distress (lorazepam and risperidone) and hypertension (labetalol) were available. Prior to discharge, a field sobriety test and mini-mental status examination were conducted to confirm return to baseline.
# [4] = test system: healthy controls (HC) and MDD participants; experiment: Psychedelic effects, 23-item Psychedelic Effects Visual Analog Scale; format: in vivo, human; conditions: for Peak change in VAS psychedelic composite score: mean (SD)
# Protocol: (§2) Blood pressure was measured at baseline and 5, 10, 15, 20, 30, 45, 60, and 120 minutes after drug administration. Heart rate and pulse oximetry were measured continuously. Subjective drug effects were measured 60 min before, as well as 30 and 120 min after drug administration.
# Both the VAS Psychedelic effects, and PSI were measured before dose administration, shortly after resolution of effects, and again near time of discharge. Subjects were instructed to retroactively rate the effects during the peak effects, given that they might not be able to accurately assess and report effects while immersed in the peak effects.
# [5] = test system: healthy controls (HC) and MDD participants; experiment: Drug desirability / reinforcement and abuse liability measures; format: in vivo, human; conditions: for monetized value of drug effects (scale from 0-100 dollars): mean (SD)
# Protocol: VAS measures of tolerability, willingness to pay for the experience, and likelihood to use DMT were analyzed similarly. […] HAM-D for each dose was compared to baseline using paired t-tests. […] For 23-item VAS psychedelic effects, multiple comparison correction was performed using false discovery rate (FDR) correction for all measures in order to increase statistical power and minimize […] errors (Benjamini and Hochberg, Journal of the Royal Statistical Society. Series B (Methodological) Vol. 57, No. 1 (1995), pp. 289-300). For PSI effects, Bonferroni correction was utilized.
# [6] = test system: healthy controls (HC) and MDD participants; experiment: Psychotomimetic States Inventory (PSI); format: in vivo, human
# Protocol: as §1
# healthy volunteers = conditions: literature, cited from earlier work
# [7] = test system: healthy controls (HC) and MDD participants; experiment: Overall tolerability of test day, visual analog scale; conditions: for overall tolerability (0=intolerable to 100=well-tolerated): mean (SD)
# [8] = Serum DMT levels after intravenous DMT hemifumarate; format: in vivo, human; conditions: IV 0.1 and 0.3 mg/kg; 30 and 60 min after administration
# Protocol: FIGS. 19A-19B depict serum DMT levels in healthy control (FIG. 19A) and depression subjects (FIG. 19B) with intravenous administration of DMT hemifumarate, in accordance with some embodiments. Y-axis: serum DMT levels (ng/dl); X-axis: 60 min before DMT administration; and 30 and 60 min after DMT administration. […] Solid line (0.1 mg/kg) and dotted line (0.3 mg/kg).
# Referring to FIGS. 19A-19B, the present study further reports for the first-time dose-related serum DMT levels in MDD subjects who received 0.1 and […] of IV DMT. The findings in healthy controls are mostly consistent with other studies and PK models (Callaway et al., J Ethnopharmacol. 1999 June; 65(3):243-56; Gallimore and Strassman, Front. Pharmacol., 14 Jul. 2016). […] Given the increased rigor of the assay for DMT utilized in this study, it is unlikely that the variability observed in MDD subjects is spurious. It may be important to note that while DMT's acute effects had mostly resolved by +30 min time point, it is conceivable that peripheral concentration may differ from the central site of action.
# [9] = test system: healthy controls (HC) and MDD participants; experiment: Cardiovascular safety: blood pressure and heart rate after intravenous DMT; format: in vivo, human
# Protocol: as §2
# serotonin 5-HT2A receptors, sequence (P28223 whole entry): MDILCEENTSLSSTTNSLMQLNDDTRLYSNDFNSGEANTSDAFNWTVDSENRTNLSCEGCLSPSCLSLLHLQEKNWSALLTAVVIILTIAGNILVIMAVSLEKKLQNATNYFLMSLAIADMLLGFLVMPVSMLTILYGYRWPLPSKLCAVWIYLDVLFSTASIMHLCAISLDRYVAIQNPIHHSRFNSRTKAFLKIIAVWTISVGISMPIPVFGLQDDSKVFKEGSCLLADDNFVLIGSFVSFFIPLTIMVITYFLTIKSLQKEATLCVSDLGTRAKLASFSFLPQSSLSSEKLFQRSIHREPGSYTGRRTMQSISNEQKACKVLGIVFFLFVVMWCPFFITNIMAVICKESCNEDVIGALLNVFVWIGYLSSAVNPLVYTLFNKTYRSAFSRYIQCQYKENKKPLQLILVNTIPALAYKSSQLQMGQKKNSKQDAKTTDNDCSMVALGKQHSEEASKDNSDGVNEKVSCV
smiles,measurement,setting,value
"CN(C)CCc1c[nH]c2ccccc12 [DMT hemifumarate, N,N-dimethyltryptamine hemifumarate]",water solubility (in words),Water solubility,water-soluble
"CN(C)CCc1c[nH]c2ccccc12 [DMT, N,N-dimethyltryptamine]",activity at serotonin 5-HT2A receptors (in words),[1],agonist activity
same,"Peak change in VAS anxiety, difference between doses","[2]; 95% CI −14.30 to 68.53, p=0.26",27.11
same,"Peak change in VAS depression, difference between doses","[2]; 95% CI −41.47 to 57.47, p=0.92",8.00
same,Peak change in VAS depression,[2]; 0.1 mg/kg session,6.83 (SD 28.94)
same,Peak change in VAS depression,[2]; 0.3 mg/kg session,14.83 (SD 37.79)
same,Peak change in VAS anxiety scale,[2]; 0.1 mg/kg session,2.56 (SD 31.8)
same,Peak change in VAS anxiety scale,[2]; 0.3 mg/kg session,29.67 (SD 39.96)
same,water solubility (in words),Water solubility,not water soluble
same,oxygen saturation during the serious adverse event,"[3]; 0.3 mg/kg IV, measured continuously",100%
same,severity of adverse events (in words),[3]; 0.1 and 0.3 mg/kg IV,mostly mild
same,clinically relevant psychotic symptoms,[3]; all dosing sessions,None of the participants
same,number of serious adverse events,[3]; asymptomatic bradycardia and hypotension in a MDD participant after 0.3 mg/kg,one
same,symptoms in one healthy subject with anticipatory anxiety,"[3]; following 0.1 mg/kg, symptoms lasted 10 minutes","lightheadedness, and pallor"
same,heart rate in the serious adverse event,"[3]; person, 5 minutes after 0.3 mg/kg IV, dropped from 54",42 beats per minute
same,blood pressure in the serious adverse event,"[3]; person, 5 minutes after 0.3 mg/kg IV, dropped from 108/60",71/42
same,Peak change in VAS psychedelic composite score,[4]; 0.1 mg/kg session,13.16 (SD 11.91)
same,Peak change in VAS psychedelic composite score,[4]; 0.3 mg/kg dose,55.83 (SD 23.89)
same,"Hedge's g, VAS psychedelic composite score dose difference",[4]; 0.3 vs 0.1 mg/kg,2.2
same,"Peak change in VAS psychedelic composite score, difference between doses","[4]; 95% CI 33.30 to 52.03, p<0.0001",42.67
same,number of the 23 VAS psychedelic items with significant dose-related differences,"[4]; FDR correction, q=0.05",16
same,duration of acute effects / resolution after injection,[4]; IV,20 to 30 min
same,time by which acute psychedelic effects completely subsided,[4]; IV push,≤ 30 min
same,time of peak of acute psychedelic effects after dosing,[4]; IV push,5 to 10 min
same,monetized value of drug effects (scale from 0-100 dollars),[5]; 0.1 mg/kg session,25.56 (SD 29.07) dollars
same,monetized value of drug effects (scale from 0-100 dollars),[5]; 0.3 mg/kg session,24.78 (SD 33.36) dollars
same,"willingness to use DMT, difference between doses","[5]; 95% CI −16.74 to 13.62, p=0.90",−1.56
same,"monetized value of drug effects, difference between doses","[5]; 95% CI −32.38 to 33.94, p=0.89",−0.78
same,abuse potential (in words),[5]; intravenous,low abuse potential
same,Mean peak change in Psychotomimetic States Inventory (PSI) scale total score,"[6]; 0.1 mg/kg session, mean (SD)",7.33 (SD 7.62)
same,Mean peak change in Psychotomimetic States Inventory (PSI) scale total score,[6]; 0.3 mg/kg session,31.67 (16.57)
same,"Hedge's g, PSI total score dose difference",[6]; 0.3 vs 0.1 mg/kg,1.89
same,"PSI total score peak change, difference between doses","[6]; 95% CI 12.74 to 35.94, p=0.001",24.33
same,tolerability in healthy controls (in words),healthy volunteers; doses ranging from 0.05-0.4 mg/kg,well-tolerated
same,time to emergence of effects after intravenous administration,healthy volunteers; healthy volunteers,≤ 2 min
same,dose above which psychedelic effects emerge,"healthy volunteers; intravenous, healthy volunteers",higher than 0.2 mg/kg
same,time to full resolution of effects,healthy volunteers; intravenous,about 30 minutes
same,overall tolerability (0=intolerable to 100=well-tolerated),[7]; 0.1 mg/kg IV dose session,89.80 (SD 12.95)
same,overall tolerability (0=intolerable to 100=well-tolerated),[7]; 0.3 mg/kg IV dose session,71.11 (SD 24.52)
same,"overall tolerability, difference between dose sessions","[7]; 0.3 vs 0.1 mg/kg, 95% CI −32.81 to −2.75, p=0.026",−17.78
same,tolerability (in words),"[7]; IV, HC and MDD participants",tolerated by both HC (n=3) and MDD participants (n=7); also recorded: well tolerated by both MDD patients and HC individuals
same,serum DMT levels in MDD subjects compared with healthy controls (in words),[8],can have higher serum DMT levels; also recorded: greater variability
same,"effect on systolic and diastolic blood pressure, and heart rate","[9]; 0.1 and 0.3 mg/kg IV, no significant dose or dose-time effects",increased
same,time point with significant increases in heart rate relative to baseline,[9]; post-hoc analyses,+5 minute
